Experimental data: article PMC12892976, “Alkylation-based optimization of antifungal FPPS inhibitors yields a potent, broad-spectrum lipophilic zoledronate derivative” (mBio, 2025)
≈ marks a conversion by molar mass, not a printed value. Like-named read-outs stand apart in the source and are kept apart here.

Tests used:
Candida glabrata [1] = assay: checkerboard drug interaction (FICI, MICc);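 for all read-outs here: simplified diagonal checkerboard screen pairing antifungals with FPPS inhibitors, FICI calculated under the Loewe additivity model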; assay type: cell-based; conditions: C. glabrata; for INH FD (MIC-MICc fold decrease): fold decrease of inhibitor MIC
Procedure: (§1) Drug interactions between antifungals and FPPS inhibitors were investigated using a simplified checkerboard diagonal screening method ([45]). […] FICIs were determined according to the Loewe additivity model ([17]).

Cryptococcus neoformans [2] = assay: checkerboard drug interaction (FICI, MICc);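 for all read-outs here: antifungal plus FPPS inhibitor pairs tested against Cryptococcus neoformans by simplified diagonal checkerboard screening, FICI computed under the Loewe additivity model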; assay type: cell-based; conditions: C. neoformans; for INH FD (MIC-MICc fold decrease): fold decrease of inhibitor MIC
Procedure: as §1

Cryptococcus neoformans [3] = assay: MIC/MFC broth microdilution (CLSI); conditions: Cryptococcus neoformans;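 note: susceptibility testing followed the CLSI M27-Ed4 broth microdilution document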
Procedure: (§2) Antifungal susceptibility was determined by broth microdilution according to the CLSI guidelines described in M27-Ed4 ([16]). […] MFC was determined by back-plating drug-treated cultures from MIC broths onto SDA plates. The MFC was defined as the lowest concentration from which no colonies could be cultured.

Aspergillus flavus [4] = assay: MIC/MFC broth microdilution (CLSI); conditions: ATCC204304
Procedure: as §2

Aspergillus fumigatus [5] = assay: MIC/MFC broth microdilution (CLSI); conditions: ATCC204305
Procedure: as §2

eight fungal species [6] = assay: MIC/MFC summary across the eight fungal species of Table 1; assay type: cell-based
Procedure: The antifungal activity of these compounds was evaluated according to CLSI guidelines ([16]).

Aspergillus flavus [7] = assay: checkerboard drug interaction (FICI, MICc);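 note: simplified diagonal checkerboard screen pairing azole antifungals with FPPS inhibitors, FICI calculated under the Loewe additivity model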; assay type: cell-based; set-up: INH MICc (KET:INH) / INH MICc (FLC:INH): unit not given beside the values; conditions: A. flavus
Candida glabrata [8] = assay: MIC/MFC broth microdilution (CLSI); conditions: Nakaseomyces glabratus, CBS138;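 note: broth microdilution following CLSI M27-Ed4, MFC taken as the lowest drug level yielding no growth once MIC wells were subcultured on SDA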
Procedure: as §2

Saccharomyces cerevisiae [9] = assay: MIC/MFC broth microdilution (CLSI); assay type: cell-based; conditions: Saccharomyces cerevisiae S288c
Procedure: as §2

Aspergillus fumigatus [10] = assay: checkerboard drug interaction (FICI, MICc); assay type: cell-based;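 note: simplified diagonal checkerboard screen pairing antifungals with FPPS inhibitors against Aspergillus fumigatus, with FICI calculated under the Loewe additivity model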
Procedure: as §1

Trichophyton rubrum [11] = assay: MIC/MFC broth microdilution (CLSI); conditions: Trichophyton rubrum
Procedure: as §2

HEK-293T cells = assay: MTT reduction cytotoxicity assay; assay type: cell-based; conditions: Homo sapiens, HEK-293T, 72 h, HEK-293T, MTT, 72 h; read-out: HEK IC50
Saccharomyces cerevisiae [12] = assay: checkerboard drug interaction (FICI, MICc); assay type: cell-based; set-up: INH MICc / INH MICc (ITR:INH) / INH MICc (KET:INH) / INH MICc (FLC:INH): unit not given beside the values;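 note: simplified diagonal checkerboard screen pairing antifungals with FPPS inhibitors, FICI calculated under the Loewe additivity model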
eight fungal species [13] = assay: checkerboard interaction with azoles, summary across the eight species; assay type: cell-based; conditions: geometric mean MIC in combination with azoles
Excerpt: Synergy between lipophilic FPPS inhibitors and azole antifungals was investigated by determining the fractional inhibitory concentration index (FICI) (Fig. 2; Table S1 Fig. S1) ([17]). […]. Derivatives PLA9 and 11, and PDA9, 11, and 12 antagonized azoles in C. albicans, C. neoformans, and C. deuterogattii, yet were largely synergistic in C. glabrata and S. cerevisiae. […].

Candida albicans [14] = assay: checkerboard drug interaction (FICI, MICc);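 for all read-outs here: antifungal plus FPPS inhibitor combinations on Candida albicans tested by a simplified diagonal checkerboard screen, with FICI calculated under the Loewe additivity model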; assay type: cell-based; conditions: C. albicans; for INH FD (MIC-MICc fold decrease): fold decrease of inhibitor MIC
Procedure: as §1

Trichophyton rubrum [15] = assay: checkerboard drug interaction (FICI, MICc);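 note: simplified diagonal checkerboard screen pairing azole antifungals with FPPS inhibitors, FICI calculated under the Loewe additivity model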; assay type: cell-based; conditions: T. rubrum
Procedure: as §1

Candida albicans [16] = assay: MIC/MFC broth microdilution (CLSI); assay type: cell-based; conditions: Candida albicans SC5314
Procedure: as §2

[17] = test system: Cryptococcus deuterogattii; assay: checkerboard drug interaction (FICI, MICc);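 for all read-outs here: simplified diagonal checkerboard screen pairing antifungal drugs with FPPS inhibitors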; assay type: cell-based; conditions: C. deuterogattii; for INH FD (MIC-MICc fold decrease): fold decrease of inhibitor MIC
Procedure: as §1

[18] = test system: Cryptococcus deuterogattii; assay: MIC/MFC broth microdilution (CLSI); conditions: Cryptococcus deuterogattii;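 note: broth microdilution per CLSI M27-Ed4. MFC is the lowest concentration yielding no colonies when MIC broths are subcultured onto SDA plates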
Procedure: as §2

[19] = FLC:INH combination, MIC of the inhibitor in combination with FLC
[20] = FLC:INH combination, fold decrease of FLC MIC
[21] = ITR:INH combination, MIC of the inhibitor in combination with ITR
[22] = ITR:INH combination, fold decrease of ITR MIC
[23] = KET:INH combination, MIC of the inhibitor in combination with KET
[24] = KET:INH combination, fold decrease of KET MIC
[25] = Fractional Inhibitory Concentration Index, fluconazole + inhibitor
[26] = Fractional Inhibitory Concentration Index, itraconazole + inhibitor
[27] = Fractional Inhibitory Concentration Index, ketoconazole + inhibitor
[28] = MIC of the inhibitor in combination with fluconazole
[29] = MIC of the inhibitor in combination with itraconazole
[30] = MIC of the inhibitor in combination with ketoconazole
[31] = MIC-MICc fold decrease of fluconazole, negative = increase
[32] = MIC-MICc fold decrease of itraconazole, negative = increase
[33] = MIC-MICc fold decrease of ketoconazole, negative = increase
[34] = MIC-MICc fold decrease of the inhibitor, with fluconazole
[35] = MIC-MICc fold decrease of the inhibitor, with itraconazole
[36] = MIC-MICc fold decrease of the inhibitor, with ketoconazole

Compound: CCCCCCCCCCN1CCC[C@H]1C(=O)N[C@H](CC(=O)OC)C(=O)OC [dmPDA10]
- FICI (Candida glabrata [1]; FLC:INH combination): ≥4
- INH MICc (Candida glabrata [1]; [19]): 16
- FLC FD (MIC-MICc fold decrease) (Candida glabrata [1]; [20]): 1
- INH FD (MIC-MICc fold decrease) (Candida glabrata [1]; FLC:INH combination): 1
- FICI (Candida glabrata [1]; ITR:INH combination): 3
- INH MICc (Candida glabrata [1]; [21]): 8
- ITR FD (MIC-MICc fold decrease) (Candida glabrata [1]; [22]): 1
- INH FD (MIC-MICc fold decrease) (Candida glabrata [1]; ITR:INH combination): 2
- FICI (Candida glabrata [1]; KET:INH combination): ≥4
- INH MICc (Candida glabrata [1]; [23]): 16
- KET FD (MIC-MICc fold decrease) (Candida glabrata [1]; [24]): -2
- INH FD (MIC-MICc fold decrease) (Candida glabrata [1]; KET:INH combination): 1
- FICI (Cryptococcus neoformans [2]; FLC:INH combination): 0.75
- INH MICc (Cryptococcus neoformans [2]; [19]): 8
- FLC FD (MIC-MICc fold decrease) (Cryptococcus neoformans [2]; [20]): 4
- INH FD (MIC-MICc fold decrease) (Cryptococcus neoformans [2]; FLC:INH combination): 2
- FICI (Cryptococcus neoformans [2]; ITR:INH combination): 0.75
- INH MICc (Cryptococcus neoformans [2]; [21]): 8
- ITR FD (MIC-MICc fold decrease) (Cryptococcus neoformans [2]; [22]): 4
- INH FD (MIC-MICc fold decrease) (Cryptococcus neoformans [2]; ITR:INH combination): 2
- FICI (Cryptococcus neoformans [2]; KET:INH combination): 0.75
- INH MICc (Cryptococcus neoformans [2]; [23]): 8
- KET FD (MIC-MICc fold decrease) (Cryptococcus neoformans [2]; [24]): 4
- INH FD (MIC-MICc fold decrease) (Cryptococcus neoformans [2]; KET:INH combination): 2
- MFC (Cryptococcus neoformans [3]): 32 mg/L (≈ 80.3 µM)
- MIC (Cryptococcus neoformans [3]): 16 mg/L (≈ 40.1 µM)
- MFC (Aspergillus flavus [4]): 64 mg/L (≈ 161 µM)
- MIC (Aspergillus flavus [4]): 64 mg/L (≈ 161 µM)
- MFC (Aspergillus fumigatus [5]): 32 mg/L (≈ 80.3 µM)
- MIC (Aspergillus fumigatus [5]): 32 mg/L (≈ 80.3 µM)
- Geometric mean MFC (eight fungal species [6]; across eight species): 45.3 mg/L
- MFC (eight fungal species [6]; across eight species, read-out: Geometric mean MFC): 45.3 mg/L (≈ 114 µM)
- MIC (eight fungal species [6]; geometric mean across eight species, read-out: GM fungal MIC): 20.7 mg/L (≈ 51.9 µM)
- MIC (eight fungal species [6]; read-out: Geometric mean MIC): 20.7 mg/L (≈ 51.9 µM)
- FICI (FLC:INH) (Aspergillus flavus [7]; [25]): 0.75
- FICI (ITR:INH) (Aspergillus flavus [7]; [26]): 1.5
- FICI (KET:INH) (Aspergillus flavus [7]; [27]): 0.63
- INH MICc (FLC:INH) (Aspergillus flavus [7]; [28]): 32
- INH MICc (ITR:INH) (Aspergillus flavus [7]; [29]): 32
- INH MICc (KET:INH) (Aspergillus flavus [7]; [30]): 8
- FLC FD (FLC:INH) (Aspergillus flavus [7]; [31]): 4
- ITR FD (ITR:INH) (Aspergillus flavus [7]; [32]): 1
- KET FD (KET:INH) (Aspergillus flavus [7]; [33]): 2
- INH FD (FLC:INH) (Aspergillus flavus [7]; [34]): 2
- INH FD (ITR:INH) (Aspergillus flavus [7]; [35]): 2
- INH FD (KET:INH) (Aspergillus flavus [7]; [36]): 8
- MFC (Candida glabrata [8]): 32 mg/L (≈ 80.3 µM)
- MIC (Candida glabrata [8]): 32 mg/L (≈ 80.3 µM)
- MFC (Saccharomyces cerevisiae [9]): 16 mg/L (≈ 40.1 µM)
- MIC (Saccharomyces cerevisiae [9]): 16 mg/L (≈ 40.1 µM)
- FICI (FLC:INH) (Aspergillus fumigatus [10]; [25]): 2.13
- FICI (ITR:INH) (Aspergillus fumigatus [10]; [26]): 0.63
- FICI (KET:INH) (Aspergillus fumigatus [10]; [27]): 2.25
- INH MICc (FLC:INH) (Aspergillus fumigatus [10]; [28]): 32
- INH MICc (ITR:INH) (Aspergillus fumigatus [10]; [29]): 2
- INH MICc (KET:INH) (Aspergillus fumigatus [10]; [30]): 32
- FLC FD (FLC:INH) (Aspergillus fumigatus [10]; [31]): 8
- ITR FD (ITR:INH) (Aspergillus fumigatus [10]; [32]): 2
- KET FD (KET:INH) (Aspergillus fumigatus [10]; [33]): 4
- INH FD (FLC:INH) (Aspergillus fumigatus [10]; [34]): -2
- INH FD (ITR:INH) (Aspergillus fumigatus [10]; [35]): 8
- INH FD (KET:INH) (Aspergillus fumigatus [10]; [36]): -2
- MFC (Trichophyton rubrum [11]): > 128 mg/L
- MIC (Trichophyton rubrum [11]): 8 mg/L (≈ 20.1 µM)
- IC50 (HEK-293T cells): 1.84 mg/L (≈ 4.62 µM)
- FICI (FLC:INH) (Saccharomyces cerevisiae [12]; [25]): ≥4
- FICI (ITR:INH) (Saccharomyces cerevisiae [12]; [26]): 3
- FICI (KET:INH) (Saccharomyces cerevisiae [12]; [27]): 1.13
- INH MICc (FLC:INH) (Saccharomyces cerevisiae [12]; [28]): 32
- INH MICc (ITR:INH) (Saccharomyces cerevisiae [12]; [29]): 16
- INH MICc (KET:INH) (Saccharomyces cerevisiae [12]; [30]): 16
- FLC FD (FLC:INH) (Saccharomyces cerevisiae [12]; [31]): -2
- ITR FD (ITR:INH) (Saccharomyces cerevisiae [12]; [32]): -2
- KET FD (KET:INH) (Saccharomyces cerevisiae [12]; [33]): 8
- INH FD (FLC:INH) (Saccharomyces cerevisiae [12]; [34]): -2
- INH FD (ITR:INH) (Saccharomyces cerevisiae [12]; [35]): 1
- INH FD (KET:INH) (Saccharomyces cerevisiae [12]; [36]): 1
- GM fungal MICc (eight fungal species [13]): 14.7
- FICI (Candida albicans [14]; FLC:INH combination): 1.5
- INH MICc (Candida albicans [14]; [19]): 8
- FLC FD (MIC-MICc fold decrease) (Candida albicans [14]; [20]): 1
- INH FD (MIC-MICc fold decrease) (Candida albicans [14]; FLC:INH combination): 2
- FICI (Candida albicans [14]; ITR:INH combination): 0.75
- INH MICc (Candida albicans [14]; [21]): 4
- ITR FD (MIC-MICc fold decrease) (Candida albicans [14]; [22]): 2
- INH FD (MIC-MICc fold decrease) (Candida albicans [14]; ITR:INH combination): 4
- FICI (Candida albicans [14]; KET:INH combination): 0.75
- INH MICc (Candida albicans [14]; [23]): 4
- KET FD (MIC-MICc fold decrease) (Candida albicans [14]; [24]): 2
- INH FD (MIC-MICc fold decrease) (Candida albicans [14]; KET:INH combination): 4
- FICI (FLC:INH) (Trichophyton rubrum [15]; [25]): ≥4
- FICI (ITR:INH) (Trichophyton rubrum [15]; [26]): ≥4
- FICI (KET:INH) (Trichophyton rubrum [15]; [27]): ≥4
- INH MICc (FLC:INH) (Trichophyton rubrum [15]; [28]): 64
- INH MICc (ITR:INH) (Trichophyton rubrum [15]; [29]): 64
- INH MICc (KET:INH) (Trichophyton rubrum [15]; [30]): 64
- FLC FD (FLC:INH) (Trichophyton rubrum [15]; [31]): 2
- ITR FD (ITR:INH) (Trichophyton rubrum [15]; [32]): 4
- KET FD (KET:INH) (Trichophyton rubrum [15]; [33]): 2
- INH FD (FLC:INH) (Trichophyton rubrum [15]; [34]): < -4
- INH FD (ITR:INH) (Trichophyton rubrum [15]; [35]): < -4
- INH FD (KET:INH) (Trichophyton rubrum [15]; [36]): < -4
- MFC (Candida albicans [16]): 32 mg/L (≈ 80.3 µM)
- MIC (Candida albicans [16]): 16 mg/L (≈ 40.1 µM)
- FICI ([17]; FLC:INH combination): 1.25
- INH MICc [17, 19]: 16
- FLC FD (MIC-MICc fold decrease) [17, 20]: 4
- INH FD (MIC-MICc fold decrease) ([17]; FLC:INH combination): 1
- FICI ([17]; ITR:INH combination): 1.5
- INH MICc [17, 21]: 16
- ITR FD (MIC-MICc fold decrease) [17, 22]: 2
- INH FD (MIC-MICc fold decrease) ([17]; ITR:INH combination): 1
- FICI ([17]; KET:INH combination): 0.53
- INH MICc [17, 23]: 8
- KET FD (MIC-MICc fold decrease) [17, 24]: 32
- INH FD (MIC-MICc fold decrease) ([17]; KET:INH combination): 2
- MFC [18]: 64 mg/L (≈ 161 µM)
- MIC [18]: 16 mg/L (≈ 40.1 µM)
